Reference: patent US11590116B2 (THERAVANCE BIOPHARMA R&D IP, LLC, priority 2019, dated 2023)

Legend:
[1] = test system: TGF-β-stimulated SMAD3 phosphorylation in BEAS-2B cells; assay: Cellular ALK5 potency assay, inhibition of TGF-β stimulated pSMAD3 formation in BEAS-2B cells; type: cell-based; conditions: Homo sapiens; inhibition of TGF-β stimulated pSMAD3 formation, BEAS-2B cells; read-out: BEAS2B pIC50 (converted)
Procedure, shortened: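 Potency is reported as pIC50, derived from concentration-dependent reduction of pSMAD3 AlphaLISA signal against TGF-β-stimulated cells without compound. BEAS-2B cells received compound for 1 h before a 30-min stimulation with 10 ng/mL TGF-β.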

[2] = target: T1, recombinant human ALK5 (TGF-βR1) protein (Homo sapiens, UniProt P36897); assay: Biochemical ALK5 (TGF-βR1) assay to measure pKi (LANCE Ultra ULight kinase assay); conditions: apparent pKi from pIC50 by Cheng-Prusoff, read-out: ALK5 pKi (converted)
T1 construct: purchased Life Technologies PR9075A
T1 sequence (P36897 34-503): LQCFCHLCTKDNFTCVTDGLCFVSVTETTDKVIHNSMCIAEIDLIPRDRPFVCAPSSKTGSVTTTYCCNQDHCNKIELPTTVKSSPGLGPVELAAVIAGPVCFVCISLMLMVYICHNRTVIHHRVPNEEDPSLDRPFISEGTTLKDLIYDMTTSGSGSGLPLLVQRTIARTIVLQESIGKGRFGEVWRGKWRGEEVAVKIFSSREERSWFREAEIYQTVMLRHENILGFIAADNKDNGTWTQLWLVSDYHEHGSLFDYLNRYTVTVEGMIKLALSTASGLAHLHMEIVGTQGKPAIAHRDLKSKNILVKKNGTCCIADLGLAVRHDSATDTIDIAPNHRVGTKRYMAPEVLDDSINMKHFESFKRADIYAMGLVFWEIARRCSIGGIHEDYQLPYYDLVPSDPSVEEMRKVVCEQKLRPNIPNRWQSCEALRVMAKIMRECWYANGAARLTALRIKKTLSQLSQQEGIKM
Procedure, shortened: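 Compounds (10 μM to 25 pM) were preincubated 60 min at room temperature with enzyme, then reactions were started with ATP (125 μM stock, 5× final) and run 60 min at 37 °C. EDTA-containing Eu-anti-phospho-Topo IIα (Thr1342) antibody stopped the reaction; TR-FRET read at 665 nm. pIC50 from 4-parameter fit, converted to pKi via Cheng-Prusoff.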

SMILES | IC50 [1] | Ki [2]
Cc1cccc(-c2[nH]ncc2-c2ccc3nccc(C(=O)OCCN4C[C@@H](C)N[C@@H](C)C4)c3c2)n1 [Compound 1176, 2-[(3R,5S)-3,5-dimethylpiperazin-1-yl]ethyl 6-[5-(6-methyl-2-pyridyl)-1H-pyrazol-4-yl]quinoline-4-carboxylate] | 25.1 to 158 nM | 0.0398 to 0.316 nM
Cc1cccc(-c2[nH]ncc2-c2ccc3ncc(C(=O)O[C@H]4CC[C@@](C)(N)CC4)cc3c2)n1 [Compound 1177, (4-amino-4-methyl-cyclohexyl) 6-[5-(6-methyl-2-pyridyl)-1H-pyrazol-4-yl]quinoline-3-carboxylate] | 25.1 to 158 nM | 0.0398 to 0.316 nM
Cc1cccc(-c2[nH]cnc2-c2ccc3ncc(-c4csc(C(=O)OCCN5CCC[C@@H](N)C5)c4)cc3c2)n1 [Compound 1178, 2-[(3R)-3-amino-1-piperidyl]ethyl 4-[6-[5-(6-methyl-2-pyridyl)-1H-imidazol-4-yl]-3-quinolyl]thiophene-2-carboxylate] | 25.1 to 158 nM | 0.0398 to 0.316 nM
CN[C@H]1CC[C@H](OC(=O)c2ccnc3ccc(-c4cn[nH]c4-c4cccc(C)n4)cc23)CC1 [Compound 1179, [4-(methylamino)cyclohexyl] 6-[5-(6-methyl-2-pyridyl)-1H-pyrazol-4-yl]quinoline-4-carboxylate] | 25.1 to 158 nM | 0.398 to 3.16 nM
Cc1cccc(-c2[nH]ncc2-c2ccc3ncc(C(=O)O[C@H]4C[C@H](N)C4)cc3c2)n1 [Compound 1181, (3-aminocyclobutyl) 6-[5-(6-methyl-2-pyridyl)-1H-pyrazol-4-yl]quinoline-3-carboxylate] | < 20 nM | 0.0398 to 0.316 nM
Cc1cccc(-c2[nH]ncc2-c2ccc3ncc(C(=O)OCCCC4CCNCC4)cc3c2)n1 [Compound 1182, 3-(4-piperidyl)propyl 6-[5-(6-methyl-2-pyridyl)-1H-pyrazol-4-yl]quinoline-3-carboxylate] | 25.1 to 158 nM | 0.0398 to 0.316 nM
Cc1cccc(-c2[nH]cnc2-c2ccc3ncc(-c4csc(C(=O)OC[C@@H]5CCCN5)c4)cc3c2)n1 [Compound 1183, [(2S)-pyrrolidin-2-yl]methyl 4-[6-[5-(6-methyl-2-pyridyl)-1H-imidazol-4-yl]-3-quinolyl]thiophene-2-carboxylate] | 25.1 to 158 nM | < 0.0316 nM
CCOc1nc(-c2ccc3ncc(Br)cc3c2)c(-c2cccc(C)n2)[nH]1 [Compound 1185, 3-bromo-6-[2-ethoxy-5-(6-methyl-2-pyridyl)-1H-imidazol-4-yl]quinoline] | 25.1 to 158 nM | 0.398 to 3.16 nM
Cc1cccc(-c2[nH]cnc2-c2ccc3ncc(-c4ncc(C(=O)OCCN5CCNCC5)s4)cc3c2)n1 [Compound 1187, 2-piperazin-1-ylethyl 2-[6-[5-(6-methyl-2-pyridyl)-1H-imidazol-4-yl]-3-quinolyl]thiazole-5-carboxylate] | 25.1 to 158 nM | 0.0398 to 0.316 nM
Cc1cccc(-c2[nH]cnc2-c2ccc3ncc(Br)cc3c2)n1 [Compound 1190, 3-bromo-6-[5-(6-methyl-2-pyridyl)-1H-imidazol-4-yl]quinoline] | < 20 nM | 0.0398 to 0.316 nM
Cc1cccc(-c2[nH]ncc2-c2ccc3ncc(C(=O)OCCN4CCC[C@H](N)C4)cc3c2)n1 [Compound 1191, 2-[(3S)-3-amino-1-piperidyl]ethyl 6-[5-(6-methyl-2-pyridyl)-1H-pyrazol-4-yl]quinoline-3-carboxylate] | 25.1 to 158 nM | < 0.0316 nM
Cc1cccc(-c2[nH]cnc2-c2ccc3ncc(-c4ccc(C(=O)OCCNC5CNC5)cn4)cc3c2)n1 [Compound 1192, 2-(azetidin-3-ylamino)ethyl 6-[6-[5-(6-methyl-2-pyridyl)-1H-imidazol-4-yl]-3-quinolyl]pyridine-3-carboxylate] | 200 to 1260 nM | 0.0398 to 0.316 nM
CN[C@H]1CC[C@@H](OC(=O)c2cnc3ccc(-c4cn[nH]c4-c4cccc(C)n4)cc3c2)CC1 [Compound 1195, [4-(methylamino)cyclohexyl] 6-[5-(6-methyl-2-pyridyl)-1H-pyrazol-4-yl]quinoline-3-carboxylate] | 25.1 to 158 nM | 0.0398 to 0.316 nM
Cc1cccc(-c2[nH]ncc2-c2ccc3ncc(C(=O)O[C@H]4CC[C@](C)(N)CC4)cc3c2)n1 [Compound 1196, (4-amino-4-methyl-cyclohexyl) 6-[5-(6-methyl-2-pyridyl)-1H-pyrazol-4-yl]quinoline-3-carboxylate] | < 20 nM | 0.0398 to 0.316 nM
Cc1cccc(-c2[nH]c(O)nc2-c2ccc3ncc(C4=CCC5(CCNCC5)CC4)cc3c2)n1 [Compound 1198, 4-[3-(3-azaspiro[5.5]undec-9-en-9-yl)-6-quinolyl]-5-(6-methyl-2-pyridyl)-1H-imidazol-2-ol] | 200 to 1260 nM | 0.0398 to 0.316 nM
Cc1cccc(-c2[nH]ncc2-c2ccc3nccc(C(=O)O[C@H]4CC[C@@H](N)CC4)c3c2)n1 [Compound 1199, (4-aminocyclohexyl) 6-[5-(6-methyl-2-pyridyl)-1H-pyrazol-4-yl]quinoline-4-carboxylate] | 200 to 1260 nM | 3.98 to 31.6 nM
Cc1cccc(-c2[nH]cnc2-c2ccc3ncc(-c4csc(C(=O)O[C@H]5CC[C@](C)(N)CC5)c4)cc3c2)n1 [Compound 1200, (4-amino-4-methyl-cyclohexyl) 4-[6-[5-(6-methyl-2-pyridyl)-1H-imidazol-4-yl]-3-quinolyl]thiophene-2-carboxylate] | 25.1 to 158 nM | 0.0398 to 0.316 nM
Cc1cccc(-c2[nH]ncc2-c2ccc3ncc(C(=O)O[C@H]4CCCNC4)cc3c2)n1 [Compound 1201, [(3S)-3-piperidyl] 6-[5-(6-methyl-2-pyridyl)-1H-pyrazol-4-yl]quinoline-3-carboxylate] | 25.1 to 158 nM | 0.0398 to 0.316 nM
COc1nc(-c2ccc3ncc(Br)cc3c2)c(-c2cccc(C)n2)[nH]1 [Compound 1202, 3-bromo-6-[2-methoxy-5-(6-methyl-2-pyridyl)-1H-imidazol-4-yl]quinoline] | 25.1 to 158 nM | 0.398 to 3.16 nM
Cc1cccc(-c2[nH]ncc2-c2ccc3ncc(C(=O)O[C@@H]4CCCNC4)cc3c2)n1 [Compound 1203, [(3R)-3-piperidyl] 6-[5-(6-methyl-2-pyridyl)-1H-pyrazol-4-yl]quinoline-3-carboxylate] | 25.1 to 158 nM | 0.0398 to 0.316 nM
Cc1cccc(-c2[nH]ncc2-c2ccc3ncc(C(=O)OCCC4CNC4)cc3c2)n1 [Compound 1204, 2-(azetidin-3-yl)ethyl 6-[5-(6-methyl-2-pyridyl)-1H-pyrazol-4-yl]quinoline-3-carboxylate] | 25.1 to 158 nM | < 0.0316 nM
Cc1cccc(-c2[nH]ncc2-c2ccc3ncc(C(=O)OC[C@@H]4CCCCN4)cc3c2)n1 [Compound 1205, [(2S)-2-piperidyl]methyl 6-[5-(6-methyl-2-pyridyl)-1H-pyrazol-4-yl]quinoline-3-carboxylate] | < 20 nM | 0.0398 to 0.316 nM
Cc1cccc(-c2[nH]cnc2-c2ccc3ncc(C4=CCC5(CCNC(=O)C5)CC4)cc3c2)n1 (centres unmarked) [Compound 1206, 9-[6-[5-(6-methyl-2-pyridyl)-1H-imidazol-4-yl]-3-quinolyl]-3-azaspiro[5.5]undec-9-en-4-one] | 25.1 to 158 nM | < 0.0316 nM
Cc1cccc(-c2[nH]cnc2-c2ccc3ncc(-c4csc(C(=O)OC[C@H]5CCCCN5)c4)cc3c2)n1 [Compound 1207, [(2R)-2-piperidyl]methyl 4-[6-[5-(6-methyl-2-pyridyl)-1H-imidazol-4-yl]-3-quinolyl]thiophene-2-carboxylate] | 25.1 to 158 nM | < 0.0316 nM
Cc1cccc(-c2[nH]cnc2-c2ccc3nccc(C(=O)O[C@H]4CC[C@](C)(N)CC4)c3c2)n1 [Compound 1209, (4-amino-4-methyl-cyclohexyl) 6-[5-(6-methyl-2-pyridyl)-1H-imidazol-4-yl]quinoline-4-carboxylate] | 25.1 to 158 nM | 0.398 to 3.16 nM
Cc1cccc(-c2[nH]ncc2-c2ccc3nccc(C(=O)OC4CCNCC4)c3c2)n1 [Compound 1210, 4-piperidyl 6-[5-(6-methyl-2-pyridyl)-1H-pyrazol-4-yl]quinoline-4-carboxylate] | 25.1 to 158 nM | 0.0398 to 0.316 nM
Cc1cccc(-c2[nH]ncc2-c2ccc3ncc(C(=O)OCCN4CC[C@@H](N)C4)cc3c2)n1 [Compound 1211, 2-[(3R)-3-aminopyrrolidin-1-yl]ethyl 6-[5-(6-methyl-2-pyridyl)-1H-pyrazol-4-yl]quinoline-3-carboxylate] | 25.1 to 158 nM | 0.0398 to 0.316 nM
Cc1cccc(-c2[nH]cnc2-c2ccc3ncc(-c4ccc(C(=O)OCCN5CCN6CCCC6C5)cn4)cc3c2)n1 (centres unmarked) [Compound 1212, 2-(3,4,6,7,8,8a-hexahydro-1H-pyrrolo[1,2-a]pyrazin-2-yl)ethyl 6-[6-[5-(6-methyl-2-pyridyl)-1H-imidazol-4-yl]-3-quinolyl]pyridine-3-carboxylate] | 25.1 to 158 nM | 0.0398 to 0.316 nM
